Biological target: human PDE4D catalytic domain (Homo sapiens (Human), UniProt Q08499)
Assay: PDE4 Assay (TR-FRET, FAM-cAMP cleavage)
Type: biochemical
Details: Table 16, Examples 277-296; read-out: PDE4 IC50 range
Summary of the method: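 Readout is Tb-to-FAM time-resolved FRET after nanoparticle capture of AMP, the product of cleaving a cAMP/FAM-cAMP mixture by PDE4D catalytic domain (S380-L740) in the presence of titrated compound. Values are IC50 ranges in nM: concentration halving substrate cleavage relative to controls.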

human PDE4D catalytic domain, sequence (Q08499 380-740): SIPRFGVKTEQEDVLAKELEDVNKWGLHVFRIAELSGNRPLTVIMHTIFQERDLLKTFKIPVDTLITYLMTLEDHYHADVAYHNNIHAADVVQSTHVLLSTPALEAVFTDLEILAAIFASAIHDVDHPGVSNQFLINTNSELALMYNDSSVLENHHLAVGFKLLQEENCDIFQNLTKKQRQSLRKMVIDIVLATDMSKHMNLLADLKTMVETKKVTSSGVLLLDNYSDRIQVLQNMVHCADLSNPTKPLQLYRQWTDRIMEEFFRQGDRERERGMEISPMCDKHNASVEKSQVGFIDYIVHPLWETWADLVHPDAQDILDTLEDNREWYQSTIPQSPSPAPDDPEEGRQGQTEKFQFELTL

| SMILES | IC50 |
| --- | --- |
| CCn1nc(C[C@@H](C)COC(=O)C2CCN(C)CC2)c2c1C(=O)NCC1(CCOCC1)C2 [Example 292, [(2R)-3-(1-ethyl-8-oxo-spiro[6,7-dihydro-4H-pyrazolo[3,4-c]azepine-5,4′-tetrahydropyran]-3-yl)-2-methyl-propyl] 1-methylpiperidine-4-carboxylate] | 100 to 500 nM |

Same assay, conditions: Table 17, Examples 297-316; read-out: PDE4 IC50 range

| SMILES | IC50 |
| --- | --- |
| CCn1nc(CC(C)(C)COC(=O)c2ccn(C)n2)c2c1C(=O)NCC1(CCOCC1)C2 [Example 298, [3-(1-ethyl-8-oxo-spiro[6,7-dihydro-4H-pyrazolo[3,4-c]azepine-5,4′-tetrahydro-pyran]-3-yl)-2,2-dimethyl-propyl] 1-methylpyrazole-3-carboxylate] | < 100 nM |
| CCn1nc(CC(C)(C)COC(=O)C2CCN(C)CC2)c2c1C(=O)NCC1(CCOCC1)C2 [Example 312, [3-(1-ethyl-8-oxo-spiro[6,7-dihydro-4H-pyrazolo[3,4-c]azepine-5,4′-tetrahydropyran]-3-yl)-2,2-dimethyl-propyl] 1-methylpiperidine-4-carboxylate] | 100 to 500 nM |
| CCn1nc(CC(C)(C)COC(=O)C2CCN(C(=O)N(C)C)CC2)c2c1C(=O)NCC1(CCOCC1)C2 [Example 316, [3-(1-ethyl-8-oxo-spiro[6,7-dihydro-4H-pyrazolo[3,4-c]azepine-5,4′-tetrahydro-pyran]-3-yl)-2,2-dimethyl-propyl] 1-(dimethylcarbamoyl)-piperidine-4-carboxylate] | < 100 nM |
| CCn1nc(CC(C)(C)COC(=O)c2cc(C)nc(C)c2)c2c1C(=O)NCC1(CCOCC1)C2 [Example 313, [3-(1-ethyl-8-oxo-spiro[6,7-dihydro-4H-pyrazolo[3,4-c]azepine-5,4′-tetrahydropyran]-3-yl)-2,2-dimethyl-propyl] 2,6-dimethylpyridine-4-carboxylate] | < 100 nM |
| CCn1nc(CC(C)(C)COC(=O)C2CCOCC2)c2c1C(=O)NCC1(CCOCC1)C2 [Example 307, [3-(1-ethyl-8-oxo-spiro[6,7-dihydro-4H-pyrazolo[3,4-c]azepine-5,4′-tetrahydro-pyran]-3-yl)-2,2-dimethyl-propyl] tetrahydropyran-4-carboxylate] | < 100 nM |

Same assay, conditions: human PDE4D catalytic domain (UniProt Q08499 [S380-L740]); 50% inhibition of substrate cleavage; read-out: PDE4 IC50 range

| SMILES | IC50 |
| --- | --- |
| CCn1nc(CCCOC(=O)c2cccc(S(=O)(=O)N3CCN(C(C)=O)CC3)c2)c2c1C(=O)NCC1(CCOCC1)C2 [Example 101, 3-(1-ethyl-8-oxo-spiro[6,7-dihydro-4H-pyrazolo[3,4-c]azepine-5,4′-tetrahydropyran]-3-yl)propyl 3-(4-acetylpiperazin-1-yl)sulfonylbenzoate] | < 100 nM |
| CCn1nc(C[C@@H](C)COC(=O)c2cccc(S(=O)(=O)N3CCN(C(C)=O)CC3)c2)c2c1C(=O)NCC1(CCOCC1)C2 [Example 166, [(2R)-3-(1-ethyl-8-oxo-spiro[6,7-dihydro-4H-pyrazolo[3,4-c]azepine-5,4′-tetrahydropyran]-3-yl)-2-methyl-propyl] 3-(4-acetylpiperazin-1-yl)sulfonylbenzoate] | < 100 nM |
| CCn1nc(CCOC(=O)c2cnsc2)c2c1C(=O)NCC1(CCOCC1)C2 [Example 275, 2-(1-ethyl-8-oxo-spiro[6,7-dihydro-4H-pyrazolo[3,4-c]azepine-5,4′-tetrahydropyran]-3-yl)ethyl isothiazole-4-carboxylate] | < 100 nM |
| CCn1nc(CCCOC(=O)c2cccc(S(=O)(=O)N3CCOCC3)c2)c2c1C(=O)NCC1(CCOCC1)C2 [Example 99, 3-(1-ethyl-8-oxo-spiro[6,7-dihydro-4H-pyrazolo[3,4-c]azepine-5,4′-tetrahydropyran]-3-yl)propyl 3-morpholinosulfonylbenzoate] | < 100 nM |
| CCn1nc(CCCOC(=O)c2ccc(Cl)c(C(F)(F)F)c2)c2c1C(=O)NCC1(CCOCC1)C2 [Example 89, 3-(1-ethyl-8-oxo-spiro[6,7-dihydro-4H-pyrazolo[3,4-c]azepine-5,4′-tetrahydro-pyran]-3-yl)propyl 4-chloro-3-(trifluoromethyl)benzoate] | < 100 nM |
| CCn1nc(CCCOC(=O)c2cccc(Cl)c2OC)c2c1C(=O)NCC1(CCOCC1)C2 [Example 59, 3-(1-ethyl-8-oxo-spiro[6,7-dihydro-4H-pyrazolo[3,4-c]azepine-5,4′-tetrahydropyran]-3-yl)propyl 3-chloro-2-methoxy-benzoate] | < 100 nM |
| CCn1nc(CCCOC(=O)c2ccc(S(=O)(=O)N(C)C)cc2)c2c1C(=O)NCC1(CCOCC1)C2 [Example 2, 3-(1-Ethyl-8-oxo-spiro[6,7-dihydro-4H-pyrazolo[3,4-c]azepine-5,4′-tetrahydropyran]-3-yl)propyl 4-(dimethylsulfamoyl)benzoate] | < 100 nM |
| CCn1nc(CCOC(=O)C2CCOCC2)c2c1C(=O)NCC1(CCOCC1)C2 [Example 276, 2-(1-ethyl-8-oxo-spiro[6,7-dihydro-4H-pyrazolo[3,4-c]azepine-5,4′-tetrahydropyran]-3-yl)ethyl tetrahydropyran-4-carboxylate] | 100 to 500 nM |
| CCn1nc(CCCOC(=O)c2ccc(C)cc2C)c2c1C(=O)NCC1(CCOCC1)C2 [Example 14, 3-(1-ethyl-8-oxo-spiro[6,7-dihydro-4H-pyrazolo[3,4-c]azepine-5,4′-tetrahydropyran]-3-yl)propyl 2,4-dimethylbenzoate] | < 100 nM |
| CCn1nc(CCCCOC(=O)c2coc(C)n2)c2c1C(=O)NCC1(CCOCC1)C2 [Example 266, 4-(1-ethyl-8-oxo-spiro[6,7-dihydro-4H-pyrazolo[3,4-c]azepine-5,4′-tetrahydropyran]-3-yl)butyl 2-methyloxazole-4-carboxylate] | < 100 nM |
| CCn1nc(CC(C)(C)COC(=O)c2cccc(C)c2)c2c1C(=O)NCC1(CCOCC1)C2 [Example 190, [3-(1-ethyl-8-oxo-spiro[6,7-dihydro-4H-pyrazolo[3,4-c]azepine-5,4′-tetrahydropyran]-3-yl)-2,2-dimethyl-propyl] 3-methylbenzoate] | < 100 nM |
| CCn1nc(CCCOC(=O)c2ccc(Cl)cc2C(F)(F)F)c2c1C(=O)NCC1(CCOCC1)C2 [Example 84, 3-(1-ethyl-8-oxo-spiro[6,7-dihydro-4H-pyrazolo[3,4-c]azepine-5,4′-tetrahydropyran]-3-yl)propyl 4-chloro-2-(trifluoromethyl)benzoate] | < 100 nM |
| CCn1nc(C[C@@H](C)COC(=O)c2cccc(S(=O)(=O)N3CCOCC3)c2)c2c1C(=O)NCC1(CCOCC1)C2 [Example 164, [(2R)-3-(1-ethyl-8-oxo-spiro[6,7-dihydro-4H-pyrazolo[3,4-c]azepine-5,4′-tetrahydropyran]-3-yl)-2-methyl-propyl] 3-morpholinosulfonylbenzoate] | < 100 nM |
| CCn1nc(CCCOC(=O)c2cccc(C(F)(F)F)c2Cl)c2c1C(=O)NCC1(CCOCC1)C2 [Example 85, 3-(1-ethyl-8-oxo-spiro[6,7-dihydro-4H-pyrazolo[3,4-c]azepine-5,4′-tetrahydropyran]-3-yl)propyl 2-chloro-3-(trifluoromethyl)benzoate] | < 100 nM |
| CCn1nc(CCCOC(=O)c2cnsc2)c2c1C(=O)NCC1(CCOCC1)C2 [Example 243, 3-(1-ethyl-8-oxo-spiro[6,7-dihydro-4H-pyrazolo[3,4-c]azepine-5,4′-tetrahydropyran]-3-yl)propyl isothiazole-4-carboxylate] | < 100 nM |
| CCn1nc(C[C@@H](C)COC(=O)c2ccc(C(=O)NC)cc2)c2c1C(=O)NCC1(CCOCC1)C2 [Example 170, [(2R)-3-(1-ethyl-8-oxo-spiro[6,7-dihydro-4H-pyrazolo[3,4-c]azepine-5,4′-tetrahydropyran]-3-yl)-2-methyl-propyl] 4-(methylcarbamoyl)benzoate] | < 100 nM |
| CCn1nc(C[C@@H](C)COC(=O)c2cccc(C(=O)N(C)C)c2)c2c1C(=O)NCC1(CCOCC1)C2 [Example 180, [(2R)-3-(1-ethyl-8-oxo-spiro[6,7-dihydro-4H-pyrazolo[3,4-c]azepine-5,4′-tetrahydropyran]-3-yl)-2-methyl-propyl] 3-(di-methylcarbamoyl)benzoate] | < 100 nM |
| CCn1nc(CCCOC(=O)C2CCS(=O)(=O)CC2)c2c1C(=O)NCC1(CCOCC1)C2 [Example 262, 3-(1-ethyl-8-oxo-spiro[6,7-dihydro-4H-pyrazolo[3,4-c]azepine-5,4′-tetrahydro-pyran]-3-yl)propyl 1,1-dioxothiane-4-carboxylate] | < 100 nM |
| CCn1nc(C[C@@H](C)COC(=O)c2ccc(C(=O)N3CCOCC3)cc2)c2c1C(=O)NCC1(CCOCC1)C2 [Example 174, [(2R)-3-(1-ethyl-8-oxo-spiro[6,7-dihydro-4H-pyrazolo[3,4-c]azepine-5,4′-tetrahydropyran]-3-yl)-2-methyl-propyl] 4-(morpholine-4-carbonyl)benzoate] | < 100 nM |
| CCn1nc(CCCOC(=O)c2cc(C)n(C)n2)c2c1C(=O)NCC1(CCOCC1)C2 [Example 249, 3-(1-ethyl-8-oxo-spiro[6,7-dihydro-4H-pyrazolo[3,4-c]azepine-5,4′-tetrahydro-pyran]-3-yl)propyl 1,5-dimethylpyrazole-3-carboxylate] | < 100 nM |
| CCn1nc(CC(C)(C)COC(=O)CCOC)c2c1C(=O)NCC1(CCOCC1)C2 [Example 186, [3-(1-ethyl-8-oxo-spiro[6,7-dihydro-4H-pyrazolo[3,4-c]azepine-5,4′-tetrahydropyran]-3-yl)-2,2-dimethyl-propyl] 3-methoxypropanoate] | < 100 nM |
| CCn1nc(CCCOC(=O)c2c(F)cccc2OC)c2c1C(=O)NCC1(CCOCC1)C2 [Example 41, 3-(1-ethyl-8-oxo-spiro[6,7-dihydro-4H-pyrazolo[3,4-c]azepine-5,4′-tetrahydropyran]-3-yl)propyl 2-fluoro-6-methoxy-benzoate] | < 100 nM |
| CCn1nc(C[C@@H](C)COC(=O)c2ccc(F)cc2)c2c1C(=O)NCC1(CCOCC1)C2 [Example 145, [(2R)-3-(1-ethyl-8-oxo-spiro[6,7-dihydro-4H-pyrazolo[3,4-c]azepine-5,4′-tetrahydropyran]-3-yl)-2-methyl-propyl] 4-fluorobenzoate] | < 100 nM |
